Type in all cases: in vivo
The nature of data set [1]: Influence on body weight, STZ induced diabetes model. Particulars: STZ rat, Test Group 3: 3 mg/kg oral twice daily. Here is the method: Female Sprague-Dawley rats (8- to 11-week-old; Japan SLC, Inc.) were intraperitoneally administered 40 mg/kg of a citrate buffer (pH, approx. 4.5) of streptozotocin (STZ; Sigma). A normal control group was intraperitoneally given only the citrate buffer.
Administration was carried out in accordance with the intended route of administration for clinical use. In Test Group 3, forced administration was carried out orally using a disposable syringe barrel and a rat stomach probe. In Test Group 4, intramuscular administration was carried out uniformly at four places within the muscle along the sciatic nerve in the femoral portion of the left leg. For subcutaneous administration in test Group 5, the animals were ether anesthetized, and subcutaneous administration was carried out in the dorsal region using a disposable syringe barrel and a disposable 25 G syringe needle. The volume of solution administered was computed based on the latest body weight.
The rat body weights were measured before test substance administration and 14 weeks after the start of test substance administration.

Data set [2] has as its system rat common carotid artery occlusion-disobliteration (4-VO) model. Nature of the data set: Water maze learning ability, rat 4-VO model. The source says:
Nine-week-old male Crlj:WI rats were intraperitoneally administered pentobarbital sodium and, while under anesthesia, were secured in the prone position to a brain stereotaxic instrument. An occipital incision was made in the skin and muscle layer of the neck region, the left and right pterygoid foramina of the first cervical vertebra were exposed, and the vertebral arteries were thermocoagulated by inserting the tip of a soldering iron into each pterygoid foramen, thereby permanently occluding the bilateral vertebral arteries. Next, a midline incision was made in the anterior region of the neck, the common carotid arteries on both sides were exposed and detached, a silicone tube was passed under the arteries and placed annularly around the arteries, following which the skin of the neck region was sutured together. On the day after vertebral arterial cauterization, the animals were anesthetized with diethyl ether, then immobilized in the supine position. Both common carotid arteries were exposed using the silicone tube that had been placed on the common carotid arteries in the neck region and were temporarily occluded for 10 minutes with Sugita clips, then reopened. Aside from ischemia and disobliteration, the same procedure was carried out also on a normal group ([…]).
• Test Group 1: 4-VO+medium, 8 days • Test Group 2: 4-VO+present drug, 10 mg/kg, twice daily, for 8 days • Test Group 3: 4-VO+present drug, 1 mg/kg, twice daily, for 42 days (evaluation of nerve cell number only) (2) Evaluation of number of nerve cells in CA1 region excised from brain (Groups 4 to 7) following measurement of water maze learning ability (Groups 4 to 7) • Test Group 4: normal (sham group)+medium, 42 days (normal control) • Test Group 5: 4-VO+medium, 42 days (solvent control) • Test Group 6: 4-VO+present drug, 10 mg/kg, twice daily for 42 days • Test Group 7: 4-VO+solvent for 8 days+present drug, 10 mg/kg, twice daily, for 34 days (evaluation of regenerative activity) (3) Pathology: Perfusion and fixing of the brain was carried out on day 8 in Test Groups 1 and 2, and on the day after the water maze learning ability test in Groups 4 to 7. The number of nerve cells was then counted by the same method as described above in Test 1. In Test Group 3, after drug administration was stopped, the brains were fixed at the same time as in Test Groups 4 to 7. (4) Measurement of Water Maze Learning Ability
Using Test Groups […], the […] were investigated with a Morris water maze in such a way as to avoid a bias between the groups.
A clear acrylic platform (about 12 cm in diameter and about 30 cm in height) which cannot be visually detected and a circular pool (about 148 cm in diameter and about 44 cm in height) made of gray vinyl chloride and filled with water (water temperature, 17 to 18° C.) to a height of about 32 cm so that the platform is hidden by the water were used.
The pool was divided into four quadrants, the platform was placed at the center of the fourth quadrant (about 36 cm from the center of the pool), and light bulbs were placed at the perimeter of the pool to provide a spatial reference.
Following the final drug dose, a drug-free period of at least 2 weeks was provided, after which the rat was placed in the pool from one of several points A to E with its head facing the circular pool wall, and the time it took to reach the platform (goal latency; seconds) was measured with a stopwatch (the measurement time was a maximum of 90 seconds). When the rat reached the platform within 90 seconds and remained on the platform for 30 seconds, it was judged to be aware of the platform location and measurement was brought to an end.
Goal latency measurements were carried out twice daily (once in the morning, and once in the afternoon) on days 1 to 4. The rat was placed in the pool from the various points A to E with its head facing the wall of the circular pool. […]

Data set [3] concerns STZ induced diabetes model. Nature of the data set: Oral glucose tolerance test (OGTT), insulin, STZ induced diabetes model. Particulars: OGTT 2 g/kg, week 13; STZ rat; Test Group 3: 3 mg/kg oral twice daily. On the procedure: Female Sprague-Dawley rats (8- to 11-week-old; Japan SLC, Inc.) were intraperitoneally administered 40 mg/kg of a citrate buffer (pH, approx. 4.5) of streptozotocin (STZ; Sigma). A normal control group was intraperitoneally given only the citrate buffer. Administration was carried out in accordance with the intended route of administration for clinical use. In Test Group 3, forced administration was carried out orally using a disposable syringe barrel and a rat stomach probe. In Test Group 4, intramuscular administration was carried out uniformly at four places within the muscle along the sciatic nerve in the femoral portion of the left leg. For subcutaneous administration in test Group 5, the animals were ether anesthetized, and subcutaneous administration was carried out in the dorsal region using a disposable syringe barrel and a disposable 25 G syringe needle. The volume of solution administered was computed based on the latest body weight. Thirteen weeks after the start of test substance administration, an oral glucose tolerance test (OGTT) was conducted on rats fasted for 18 hours. After drawing blood from the caudal vein of the fasting rats, 2 g/kg of glucose was orally force-fed. About 500 μL of blood was similarly collected from the caudal vein 30, 60 and 120 minutes after glucose administration, of which about 400 μL was EDTA-2Na treated, then centrifuged (3,000 rpm, 4° C., 10 min) with a centrifuge. The plasma was thereby collected, and the blood sugar was measured using a 7170 Clinical Analyzer (Hitachi, Ltd.). The remaining approximately 100 μL of blood was centrifuged (3,000 rpm, 4° C., 10 min) with a centrifuge, the serum was collected, and the insulin level was measured (ELISA method; Levis Insulin Kit (Shibayagi Co., Ltd)).

[4] abbreviates: Test Group 6: 10 mg/kg oral twice daily 42 days.
[5] abbreviates: Test Group 7: solvent 8 days, then 10 mg/kg oral twice daily 34 days.

On to `O=C(O)COc1cccc2c1CCC=C2CCO/N=C(\c1ccccc1)c1cccnc1` [present drug, ({5-[2-({[(1E)-phenyl(pyridin-3-yl)methylene]amino}oxy)ethyl]-7,8-dihydronaphthalen-1-yl}oxy)acetic acid], for which the “Body weight (g) 0 weeks” value in data set [1] was 219.1 ± 12.2 g. Besides, the “body weight relative to Test Group 2” value in data set [1] (week 14) is listed as “significant weight decreased”. In data set [2] (setting [4]), the “Distance traveled until rat reaches platform, AUC for Days 1 to 4 (average)” value is on record as 3932.8 ± 1115.1; the “Goal latency (seconds) Acquisition trials Day 1 (average)” value worked out at 71.8 ± 18.3 s; the “Goal latency (seconds) Acquisition trials Day 2 (average)” value stood at 58.8 ± 22.1 s; the “Goal latency (seconds) Acquisition trials Day 3 (average)” value stood at 41.3 ± 28.8 s. Moreover, in data set [2] (setting [4]), the “Goal latency (seconds) Acquisition trials Day 4 (average)” value came out at 33.9 ± 23.2 s; the “Goal latency (seconds) Acquisition trials Trials 1 to 8 (average)” value came out at 51.5 ± 11.9 s; the “Goal latency, AUC for Days 1 to 4 (average)” value worked out at 152.9 ± 42.7. The “goal latency (seconds) and distance traveled relative to the solvent control group (Test Group 5)” value in data set [2] (Test Group 6: oral 10 mg/kg twice daily) is “significant shortening”. Besides, in data set [2] (Test Group 7: medium up to day 8, oral 10 mg/kg twice daily from day 9), the “goal latency (seconds) and distance traveled relative to the solvent control group (Test Group 5)” value is on record as “significant shortening”. Moreover, in data set [2] (setting [5]), the “Distance traveled until rat reaches platform, AUC for Days 1 to 4 (average)” value is recorded as 3850.5 ± 832.5; the “Goal latency (seconds) Acquisition trials Day 1 (average)” value was determined as 73.8 ± 15.2 s; the “Goal latency (seconds) Acquisition trials Day 2 (average)” value amounted to 55.4 ± 29.6 s; the “Goal latency (seconds) Acquisition trials Day 3 (average)” value turned out to be 41.7 ± 26.7 s. In data set [2] (setting [5]), the “Goal latency (seconds) Acquisition trials Day 4 (average)” value was 25.8 ± 15.2 s; the “Goal latency (seconds) Acquisition trials Trials 1 to 8 (average)” value worked out at 49.2 ± 10.1 s; the “Goal latency, AUC for Days 1 to 4 (average)” value worked out at 146.9 ± 40.5. Also, in data set [3], the “Insulin (ng/mL) After 30 minutes” value was 2.197 ± 2.062 ng/mL, the “Insulin (ng/mL) After 60 minutes” value is 1.808 ± 1.521 ng/mL, the “Insulin (ng/mL) After 120 minutes” value turned out to be 2.130 ± 2.087 ng/mL and the “Insulin (ng/mL) Before glucose loading” value was found to be 2.138 ± 1.722 ng/mL.

Source of the values: patent US8617614B2, “Sustained release preparation for tissue regeneration therapy” (Ono Pharmaceutical Co., Ltd., priority 2006, dated 2013).
